# Experimental data as given in patent US20220153746A1, “NITROGEN OXIDE-DONATING PDE-5 AND/OR PDE-6 INHIBITOR COMPOUNDS, AND USES THEREOF” (ILDONG PHARMACEUTICAL CO., LTD., priority 2020, published 2022).
# How the values were obtained:
# human PDE-5A1 = human PDE-5A1 (Homo sapiens, UniProt O76074); experiment: Human PDE-5A1 inhibition assay (fluorescence polarization, FAM-cGMP); assay type: biochemical; conditions: read-out: IC50 (μM) PDE5A1
# human PDE-6C = human PDE-6C (Homo sapiens, UniProt P51160); experiment: Human PDE-6C inhibition assay (fluorescence polarization, FAM-cGMP); assay type: biochemical; conditions: read-out: IC50 (μM) PDE6C
# human PDE-6C, sequence (P51160 whole entry): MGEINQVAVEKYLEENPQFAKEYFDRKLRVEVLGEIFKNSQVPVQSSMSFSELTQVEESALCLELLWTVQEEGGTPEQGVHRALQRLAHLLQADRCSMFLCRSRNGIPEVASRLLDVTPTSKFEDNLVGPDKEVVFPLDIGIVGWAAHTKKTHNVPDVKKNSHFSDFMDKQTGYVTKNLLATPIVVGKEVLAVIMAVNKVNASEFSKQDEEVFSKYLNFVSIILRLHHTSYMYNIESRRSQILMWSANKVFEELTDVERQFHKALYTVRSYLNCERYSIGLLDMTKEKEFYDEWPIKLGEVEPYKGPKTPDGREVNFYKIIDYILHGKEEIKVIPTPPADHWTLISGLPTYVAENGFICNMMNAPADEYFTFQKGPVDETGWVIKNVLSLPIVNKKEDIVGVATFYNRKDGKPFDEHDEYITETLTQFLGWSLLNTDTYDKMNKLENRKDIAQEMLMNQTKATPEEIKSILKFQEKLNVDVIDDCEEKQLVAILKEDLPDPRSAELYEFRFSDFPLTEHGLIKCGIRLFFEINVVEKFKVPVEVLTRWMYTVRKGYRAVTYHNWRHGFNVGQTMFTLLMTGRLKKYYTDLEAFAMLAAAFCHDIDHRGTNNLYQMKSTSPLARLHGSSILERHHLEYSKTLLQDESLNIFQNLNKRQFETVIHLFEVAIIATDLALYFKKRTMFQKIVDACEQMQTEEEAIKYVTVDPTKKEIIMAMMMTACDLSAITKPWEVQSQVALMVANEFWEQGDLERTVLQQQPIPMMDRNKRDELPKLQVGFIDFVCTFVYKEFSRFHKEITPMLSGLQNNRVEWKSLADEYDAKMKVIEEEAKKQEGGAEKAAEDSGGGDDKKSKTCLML
# [1] = Metabolic stability in human liver microsomes; assay type: in vitro ADME; conditions: 37° C., 0-60 minutes
# Procedure: This example illustrates the metabolic stability of selected compounds in human liver microsomes samples.
# Both test and control compound solutions were prepared by diluting 5 μL of the respective stock solutions (10 mM in DMSO) containing either the test or control compound with 495 μL of acetonitrile (ACN) to give intermediate solutions with concentrations of 100 μM (99% ACN).
# β-Nicotinamide adenine dinucleotide phosphate tetrasodium salt (NADPH.4Na) was purchased from BONTAC (cat. No. BT04). The NADPH working solution (10 unit/mL) was prepared by combining the appropriate amount of NADPH powder and a MgCl2 solution (10 mM) to give final concentration in the reaction system of 1 unit/mL.
# The appropriate concentrations of the microsome working solutions were prepared in 100 mM potassium phosphate buffer.
# Cold (4° C.) acetonitrile solution containing 200 ng/mL tolbutamide and 200 ng/mL labetalol (internal standard) was used as the stop solution.
# Liver microsomes solution was diluted to 0.56 mg/mL in 100 mM phosphate buffer, and 445 μL of this solution was transferred into pre-warmed (10 minutes) “incubation” plates T60 and NCF60; the “incubation” plates T60 and NCF60 were pre-warmed for 10 minutes at 37° C. with constant shaking.
# 54 μL of the liver microsome solutions was transferred to the blank plate, followed by addition of 6 μL of the NAPDH cofactor solution and 180 μL of the quenching solution to the same blank plate.
# 5 μL of the compound working solution (100 μM concentration) was next added to into the “incubation” plates (T60 and NCF60) containing microsomes and mixed 3 times thoroughly. For the NCF60 plate, 50 μL of the buffer solution was added, mixed 3 times thoroughly, and incubated at 37° C. for 60 minutes under constant shaking.
# In the “Quenching” plate at T0 (T=0 min), 180 μL of quenching solution and 6 μL of the NAPDH cofactor solution were added, and the resulting plate was chilled to prevent evaporation.
# In the T60 plate, after it was thoroughly mixed, 54 μL of the mixture was immediately transferred to the “quenching” plate for the 0-minute time point, followed by addition of 44 μL of NAPDH cofactor solution to the incubation plate (T60). The resulting mixture was then incubated at 37° C. for 60 minutes under constant shaking. At time points of 5, 10, 20, 30 and 60 minutes, 180 μL of the quenching solution was added to the “quenching” plates, followed by serial transfer of 60 μL of the mixture (per time point) from the T60 plate to the “Quenching” plates.
# For the NCF60 plates, 60 μL of the sample solution was transferred from the NCF60 incubation plate to the “Quenching” plate containing quenching solution at T=60 min time point. […]
# [2] = Plasma protein binding assay (equilibrium dialysis); assay type: in vitro ADME; conditions: human plasma, dialysis 4 hours at 37° C.
# Procedure: (§1) The dialysis device used in this example is a 96-well equilibrium dialysis plate (Cat #1006, HT Dialysis LLC, Gales Gerry, CT), and HTD 96 a/b dialysis membrane strips (Cat #1101, MWCO 12-14 kDa, HT Dialysis LLC). The dialysis device was assembled following the manufacturer's instructions.
# (§2) The dialysis membrane strips were soaked in ultra-pure water at room temperature for approximately 1 hour. Each membrane strip containing 2 membranes was separated and soaked in 20:80 ethanol/water (v/v) for approximately 20 minutes, after which they were ready for used or were stored in the solution at 2-8° C. for up to a month. Prior to experiment, the membrane was rinsed and soaked for 20 minutes in ultra-pure water.
# (§3) On the day of the experiment, the plasma was thawed by running under col tap water and centrifuged at 3220 rpm for 5 minutes to remove any clos. The pH value of the resulting plasma was checked. Only plasma with pH value with 7.0-8.0 could be used.
# (§4) Both test and control compounds were dissolved in DMSO to achieve 10 mM stock solutions. Working solutions (400 μM) if test and control compounds were prepared by diluting 10μ of stock solutions with 240 μL of DMSO. Loading matrix solutions (2 μM) of both test and control compounds were prepared by diluting 5 μL of working solutions with 995 μL of blank matrix.
# (§5) To prepare the loading matrix containing the test compound or control compounds, aliquots of either test compound working solutions or control compound working solution were spiked into blank matrix to achieve final test concentrations. The concentration of organic solvent in the final solutions were no more than 1% (normally 0.5%). The samples were mixture thoroughly before being used.
# (§6) To prepare the time zero (T0) samples to be used for recovery determinations. 50 μL aliquots of loading matrix solution were transferred in triplicate to the sample collection plate. The samples were immediately matched with opposite blank buffer to obtain a final volume of 100 μL of 1:1 matrix/dialysis buffer (v/v) in each well. 500 μL of stop solution were added to these T0 samples. They were then stored at 2-8° C. pending further processes along with other post-dialysis samples.
# (§7) To load the dialysis device, an aliquot of 150 μL of the loading matrix was transferred to the donor side of each dialysis well in triplicate, and 150 μL of the dialysis buffer was loaded to the received side of the well. The dialysis was placed in humidified incubator at 37° C. with 5% CO2 on a shaking platform that rated slowly (about 100 rpm) for 4 hours.
# (§8) At the end of the dialysis, aliquots of 50 μL of samples were taken from both the buffer side and the matrix side of the dialysis deice. These samples were transferred into new 96-well plates (the sample collection plates). Each sample was mixed with an equal volume of opposite blank matrix (buffer or matrix) to reach a final volume of 100 μL of 1:1 matrix/dialysis buffer (v/v) in each well. All samples were further processed by adding 500 μL of stop solution containing internal standards. The mixture was vortexed and centrifuged at 4000 rpm for about 20 minutes. An aliquot of 100 μL of supernatant of all the samples were then removed for LC-MS/MS analysis.
# (§9) The single blank samples were prepared by transferring 50 μL of blank matrix to a 96 well plate and adding 50 μL of blank PBS buffer to each well. The blank plasma must match the species of plasma used in the plasma side of the well. Then the matrix-matched samples were further processed by adding 500 μL of stop solution containing internal standards, following the same sample processing method as the dialysis samples.
# human plasma proteins = experiment: as above; assay type: in vitro ADME; conditions: 2 μM, dialysis 4 hours at 37° C.
# Procedure: as §1, §2, §3, §4, §5, §6, §7, §8, §9
smiles,measurement,setting,value
"CCCc1nn(C)c2c(=O)[nH]c(-c3cc(S(=O)(=O)N4CC(NCCCO[N+](=O)[O-])C4)ccc3OCC)nc12 [Compound 22, 3-((1-((4-ethoxy-3-(1-methyl-7-oxo-3-propyl-6,7-dihydro-1H-pyrazolo[4,3-d]pyrimidin-5-yl)phenyl)sulfonyl)azetidin-3-yl)amino)propyl nitrate]",IC50,human PDE-5A1,< 0.01 µM
same,IC50,human PDE-6C,< 0.01 µM
same,CLint scaled at 1 µM,[1],358 mL/min/kg
same,"fraction unbound at 4 h, 2 µM",[2],0.0247
same,% Bound,human plasma proteins,97.53%
